Test results from publication PMC4766415 (Nature Communications, 2016).
Where two headings read alike, the source gives them in different places.

Experiments:
[1] = system: T1, TTR in human plasma (WT-TTR and V30M-TTR); test: [125I]T4 competition in human plasma, native gel electrophoresis; type: binding; conditions: 1 mM; plasma from normal (WT-TTR) and V30M-TTR FAP patient; 1 h RT
T1 construct: human plasma from a normal (WT-TTR) and from an FAP patient carrying the V30M-TTR mutation; from tissue; host or cells: human plasma of normal donors and of V30M-TTR carriers
Text: Error bars indicate s.e.m. (n=3). […] Error bars indicate s.e.m. (n=3).

TTR [2] = system: TTR; set-up: method as in Vyndaqel European Public Assessment Report (EMA/815723/2011); conditions: single dose of 120 mg; ref Vyndaqel European Public Assessment Report (EMA/815723/2011); cited from earlier work
V122I-TTR = target: V122I-TTR; set-up: method as in PMID 23716704; conditions: subunit exchange assays; cited from earlier work
AC16 cells = test: TTR-induced cytotoxicity in AC16 cells, resazurin reduction assay; type: cell-based, human; conditions: 16 μM compound, 8 μM TTR; 24 h
Text: Error bars indicate s.e.m. […] Error bars indicate s.e.m. (n=4). […] Error bars indicate s.e.m. (n=3).

[3] = set-up: method as in Vyndaqel European Public Assessment Report (EMA/815723/2011); conditions: single dose of 120 mg; ref Vyndaqel European Public Assessment Report (EMA/815723/2011); cited from earlier work
[4] = system: WT and V30M-TTR tetramers in plasma; test: TTR tetramer stability in human plasma by IEF under semi-denaturing conditions; type: biochemical; conditions: 1.4 mM, overnight 4 °C, 4 M urea
[5] = system: Rat Schwannoma cells (RN22); test: Caspase-3 activation by Y78F-TTR oligomers in RN22 cells; conditions: Y78F-TTR aggregates 2 μM formed with 20 μM compound; 24 h exposure
Y78F-TTR = Y78F-TTR (Homo sapiens, UniProt P02766, Y98F); test: Y78F-TTR aggregation inhibition, turbidity at 340 nm, pH 4.2
L55P-TTR = system: T2, L55P-TTR; test: Dot-blot filter assay of L55P-TTR aggregation secreted by RN22 cells; type: cell-based, human; conditions: 1 μM in the medium
T2 construct: TTR is composed of four identical 127 amino-acid residue β-sheet-rich subunits; expressed in transfected cells; host or cells: rat Schwannoma RN22 cells, metallothionein promoter, ZnSO4 induction
Method: The extent of extracellular L55P-TTR aggregation was monitored by a filter trap assay followed by TTR immunodetection.
The rat Schwannoma cell line RN22 stably co-transfected with TTR L55P cDNA under the control of the metallothionein promoter was used to test the inhibitors of TTR aggregation as in ref. [51]. […] TTR in the medium was quantified by ELISA, and the volume of medium corresponding to 500 ng of TTR was applied on to a 0.2-μm pore cellulose acetate membrane filter (Schleicher and Schuell) using a manifold system (Gibco BRL) to separate soluble proteins from aggregates. […] Detection was performed with ECL (GE Healthcare). Dot blot quantification was performed using the ImageQuant program. The percentage of aggregation inhibition was calculated as 100 × ((Control—Treated)/Control). Experiments were repeated three times in triplicate.

FAP = system: FAP; set-up: method as in PMID 24368466; conditions: patients with FAP, 2 years treatment; cited from earlier work
TTR [6] = target: TTR; set-up: method as in PMID 14968122; conditions: cited from earlier work
[7] = set-up: method as in PMID 17107884; conditions: cited from earlier work

Row | RA (%): percent reduction of TTR aggregation rate at high inhibitor concentration (Y78F-TTR) [%] | SMILES | radioactive T4-TTR band in the presence of compound [1] | average percent stabilization of TTR (TTR [2]) [%] | Kd2 estimate (V122I-TTR) | effect on WT-TTR and V122I-TTR induced reduction in cell viability (AC16 cells) | average concentration in plasma at Tmax [3] [µM] | TTR tetramer stabilization in plasma [4] | reduction in Caspase-3 activation [5] | reduction of L55P-TTR aggregation compared with untreated cells (L55P-TTR) [%] | effect on progression of neurological impairment (FAP) | Kd (TTR [6]; read-out: Kd1) [µM] | Kd (TTR [6]; read-out: Kd2) [µM] | concentration in serum after oral administration [7] [µM]
1 | 59.57 | O=C(O)c1ccc2nc(-c3cc(Cl)cc(Cl)c3)oc2c1 [tafamidis] | no longer visible | 189 | in the μM range | rescued this toxic effect | 14.4 | stabilized WT and V30M-TTR tetramers in plasma | 11.6%±4.0 | ~90 |  |  |  | 
2 |  | O=C(O)c1cc(-c2ccc(F)cc2F)ccc1O [diflunisal] |  |  |  |  |  |  |  |  | reduced the rate of progression of neurological impairment | 0.075 | 1.1 | > 140
